Measurements taken from patent US20100151004A1, “MODULATION OF DRUG SENSITIVITY” (UNIVERSITY OF MEDICINE AND DENTISTRY OF NEW JERSEY, priority 2007, published 2010).
“Also recorded” adds a separate entry of the source.

How the values were obtained:
HCT-8/4hFU cells [1] = experiment: MTS cytotoxicity assay, 4 h bolus drug exposure; format: cell-based, human
Text: Cancer Res 1992 Apr. […] Louis, Mo., USA).

HCT-8/4hFU tumor = experiment: Colorectal cancer xenograft model, tumor volume; format: in vivo, mice; conditions: for tumor response (tumor volume): one course, DAC 3×0.5 mg/kg i.p., 5-FU 1×50 mg/kg i.p.; for tumor response (tumor growth): two courses, DAC 3×0.5 mg/kg/course i.p., 5-FU 1×50 mg/kg/course i.p.
Description: (§1) Two independent experiments were performed and animals received either 1 or 2 courses of treatment (1 or 2 weeks) followed by an additional week of observation. […] Prior to the experiment tumors were grounded to a powder in LN2. Following the tumor harvest or if tumor diameter is greater than 1 cm, or greater than 15% weight loss occurred the animals were euthanized. All experiments were performed according to the protocol approved by The Institutional Animal Care and Use Committee at RWJMS. […] Gels were quantitated using ChemiDoc XRS machine and Quantity One 1-D analysis software (BioRad, Hercules, Calif., USA).

HCT-8/P tumor = experiment: Colorectal cancer xenograft model, tumor volume; format: in vivo, mice
Description: as §1

[2] = tested on: UMPK expression in HCT-8/4hFU cells; experiment: UMPK mRNA (Q-RT-PCR) and protein (Western blotting) after DAC exposure in cultured cells; format: cell-based, human; conditions: low-dose DAC for 24 h
Description: (§2) Cells (1-5×10^6) were trypsinized, washed twice with PBS and kept frozen in −80° C. until used. Cell pellets or powdered tumors (vide infra) were thawed and resuspended in 0.5 ml of RIPA buffer (50 mM Tris-HCl buffer pH 7.4, 3 mM sodium fluoride and 4 mM DTT) supplemented with protease inhibitors. Samples were sonicated (2×20 s, 60% power) on ice and centrifuged for 20 min at 20,000 rpm. […] of lysate was loaded onto 10% SDS-PAGE gel and after transfer to nitrocellulose probed with anti-UMPK polyclonal antibody (1:1000) for 2 hours (gift of Dr Y. C. Cheng, Yale University) and secondary ant-rabbit antibody (1:5000) for 1 hour (Sigma St Louis, Mo., USA) or anti-α-tubulin (1:10000) for 1 hour (Sigma, St Louis, Mo., USA) and anti-mouse antibody (1:2000) for 0.5 h (Santa Cruz, Calif., USA) as a control.
(§3) Total RNA was extracted from 1-5×10^6 cells or powdered tumors using Trizol Reagent (Invitrogen, Carlsbad, Calif., USA) and run on 1% folmaldehyde-agarose gel to assess the quality of the RNA. […] Delta delta Ct method was used to calculate relative fold change in mRNA level (Livak K J, Schmittgen T D. Analysis of relative gene expression data using real-time quantitative PCR and the 2(−Delta Delta C(T)) Method. Methods 2001 December; 25(4):402-8). […]

[3] = tested on: UMPK expression in HCT-8/P cells; experiment: UMPK expression after DAC exposure in cultured cells; format: cell-based, human; conditions: low-dose DAC for 24 h
Description: as §2, §3

UMPK in HCT-8/P tumors = experiment: UMPK mRNA in xenograft tumors after DAC treatment (Q-RT-PCR); format: in vivo, mice; conditions: HCT-8/P group
Description: (§4) Total RNA was extracted from 1-5×10^6 cells or powdered tumors using Trizol Reagent (Invitrogen, Carlsbad, Calif., USA) and run on 1% folmaldehyde-agarose gel to assess the quality of the RNA. Gene specific primers and fluorescent-labeled probe (FAM and TAMRA) were designed using Primer Express Software from ABI (Applied Biosystems, Foster City, Calif., USA). 50 ng of RNA was amplified in one-step RT-PCR reaction (Applied Biosystems, Foster City, Calif., USA) using TaqMan Real-Time PCR machine (7000 SDS). 18SrRNA (FAM) (Applied Biosystems, Foster City, Calif., USA) or β-actin (FAM-TAMRA) was used to normalize the results. Delta delta Ct method was used to calculate relative fold change in mRNA level (Livak K J, Schmittgen T D. Analysis of relative gene expression data using real-time quantitative PCR and the 2(−Delta Delta C(T)) Method. Methods 2001 December; 25(4):402-8). The sequence of UMPK forward primer is 5′-AAGAAGGAAAGATTGTACCAGTTGAGA-3′ (SEQ ID NO: 7), reverse primer 5′-GGAAACCCATCAATCAAGAATTTATT-3′ (SEQ ID NO: 8), and probe 5-FAM-AGAGGGAAATGGATCAGACAATGGCTGC-TAMRA-3′ (SEQ ID NO: 9).
(§5) HCT-8/P or HCT-8/4hFU cells (2.5×10^6) were injected subcutaneously into SKID nu/nu mice (Taconic, Germantown, N.Y., USA). When tumors were palpable animals were randomized into 4 groups (5-10 animals per group) and treated with DAC (Tuesday, Wednesday, Thursday, 0.5 mg/kg, i.p.), or 5-FU (Friday, 50 mg/kg, i.p.), or DAC & 5-FU, or PBS as a control. Measurements of tumor size and animal weight were performed every 3-4 days. Two independent experiments were performed and animals received either 1 or 2 courses of treatment (1 or 2 weeks) followed by an additional week of observation. In order to assay UMPK induction in tumors, animals from DAC alone, and DAC & 5-FU groups received additional course of DAC treatment towards the end of experiment. 24 hours after the third dose of DAC was administered animals were anesthetized, and tumors harvested, washed in PBS and flash frozen in LN2. Prior to the experiment tumors were grounded to a powder in LN2. Following the tumor harvest or if tumor diameter is greater than 1 cm, or greater than 15% weight loss occurred the animals were euthanized. All experiments were performed according to the protocol approved by The Institutional Animal Care and Use Committee at RWJMS.

[4] = tested on: UMPK mRNA in HCT-8/4hFU tumors; experiment: as above; format: in vivo, mice
Description: as §4, §5

[5] = tested on: UMPK promoter and first exon CpG sites in HCT-8/4hFU cells; experiment: Pyro Q-CpG analysis of methylation; format: cell-based, human; conditions: HCT-8/4hFU + 0.5 μM DAC for 24 h
Description: DNA was extracted from tumors or cells using standard phenol-chlorophorm-isoamyl alcohol extraction (Invitrogen, Carlsbad, Calif., USA). 2 μg of sample DNA or 1 μg of control DNA was bisulfite modified using EZ DNA Methylation Kit (Zymo Research, Orange, Calif., USA). 1 ul out of 10 ul of post bisulfite modified DNA was used for PCR. Bisulfite treated fetal cell DNA and in vitro methylated human DNA (Chemicon, Millipore, Billerica, Mass.) were used in the assay development and PCR bias testing. The following reagents were mixed together in preparation for the Pyrosequencing reaction: Streptavidin beads 2 μl, 2× binding buffer 40 μl, PCR product 10 μl, water 28 μl. The assay was performed by EpigenDx (Worcester, Mass., USA) using PSQHS 96 System. Methylation of 42 CpG sites was analyzed.

HCT-8/P cells = experiment: MTS cytotoxicity assay, 4 h bolus drug exposure
HCT-8/4hFU cells [6] = experiment: MTS cytotoxicity assay, continuous 5-FU exposure (4 days); format: cell-based, human
Description: Number of viable cells was determined by MTS assay.

colorectal cancer = conditions: patients, typical clinical response; cited from earlier work
[7] = DAC 0.0005 μM-0.5 μM, 24 h exposure
[8] = one course, DAC 3×0.5 mg/kg i.p., 5-FU 1×50 mg/kg i.p.
[9] = two courses, DAC 3×0.5 mg/kg/course i.p., 5-FU 1×50 mg/kg/course i.p.

With `Nc1ncn([C@H]2C[C@H](O)[C@@H](CO)O2)c(=O)n1` [DAC, 5-Azadeoxycytidine] the “restoration of sensitivity of HCT-8/4hFU cells to that seen in HCT-8/P cells” value (HCT-8/4hFU cells [1]; 0.02 μM DAC 24 h pretreatment) was “able to restore the sensitivity”, the cell kill (HCT-8/4hFU cells [1]; [7]) was “less than 20%” and the “effect of DAC pretreatment on sensitivity to bolus 5-FU” value (HCT-8/4hFU cells [1]; DAC 24 h pretreatment, then 5-FU 4 h) was “makes HCT-8/4hFU cells sensitive”. For the same molecule, the “effect of DAC pretreatment on sensitivity to 5-FUR” value (HCT-8/4hFU cells [1]; DAC 24 h pretreatment, then 5-FUR 4 h) was “makes HCT-8/4hFU cells sensitive”, the “tumor response (tumor volume)” value (HCT-8/4hFU tumor) was “resistant” and the “tumor response (tumor growth)” value (HCT-8/4hFU tumor) was “No significant response”. For the same molecule, the “tumor response (tumor growth)” value (HCT-8/P tumor; [8]) was “most significant delay in the tumor growth”, the “tumor response (tumor growth)” value (HCT-8/P tumor; [9]) was “most significant effect” and the “UMPK mRNA as well as protein levels” value [2] was “dose dependent increase”. The UMPK expression [3] was “No increase”, the “increase of UMPK after DAC treatment” value (UMPK in HCT-8/P tumors) was “No increase” and the “increase in UMPK mRNA as compared to untreated tumor” value ([4]; after one course of DAC (3×0.5 mg/kg)) was 4 fold. For the same molecule, the “increase in UMPK mRNA as compared to untreated tumor” value ([4]; after two and three weeks of DAC treatment) was at most 20 fold, the “average increase of UMPK in tumors of the group of animals” value ([4]; animals of the two-course experiment, relative to untreated HCT-8/4hFU tumors) was 8.5 fold and the “Mean methylation across 36 CpG sites” value [5] was 2.74. The cell kill (HCT-8/P cells; [7]) was “less than 20%” and the “effect of DAC on sensitivity of HCT-8/P cells to 5-FU or 5-FUR” value (HCT-8/P cells; DAC 24 h pretreatment, then 5-FU or 5-FUR 4 h) was “Much less of an effect; also recorded: do not show increased sensitivity”.
For `O=c1[nH]c(=O)n([C@@H]2O[C@H](CO)[C@@H](O)[C@H]2O)cc1F` [5-FUR, 5-fluorouridine], the “increase in the IC50 value, HCT-8/4hFU as compared to HCT-8/P cells” value (HCT-8/4hFU cells [1]; 5-FUR 4 h exposure) was at most 10 fold.
For `O=c1[nH]cc(F)c(=O)[nH]1` [5-FU, 5-Fluorouracil], the “fold resistance to bolus 5-FU, HCT-8/4hFU versus HCT-8/P” value (HCT-8/4hFU cells [1]; bolus 4 h exposure, cell viability assay) was 3-4 fold, the “sensitivity to continuous exposure to 5-FU, HCT-8/4hFU versus HCT-8/P” value (HCT-8/4hFU cells [6]) was “equally sensitive” and the “tumor response (tumor volume)” value (HCT-8/4hFU tumor) was “resistant”. For the same molecule, the “tumor response (tumor growth)” value (HCT-8/4hFU tumor) was “partial response”, the “tumor response (tumor growth)” value (HCT-8/P tumor; [8]) was “responded” and the “tumor response (tumor growth)” value (HCT-8/P tumor; [9]) was “responded”. The response rate (colorectal cancer) was “less than 30%”.
